Reference: patent US20190169221A1, “SUBSTITUTED NUCLEOSIDES, NUCLEOTIDES AND ANALOGS THEREOF” (Janssen BioPharma, Inc., priority 2016, published 2019)
Like-named read-outs stand apart in the source and are kept apart here.

What was measured:
[1] = system: Dengue virus type 2 strain New Guinea C (NG-C); test: Dengue viral assay (cytopathic effect, Huh-7.5 cells); format: cell-based; details: read-out: Dengue NGC EC50
Protocol: The Dengue virus type 2 strain New Guinea C (NG-C) and the Dengue virus type 4 strain H241 were purchased from ATCC (Manassas, Va.; item numbers VR-1584 and VR-1490, respectively). The Zika virus strain MR766 was purchased from ATCC (item #VR-1838) and the Zika virus strain IbH 30656 was purchased from BEI Resources (Manassas, Va.; item number NR-500066). 24 h prior to dosing, Huh-7.5 cells were plated in 96 well plates at a density of 1.5×10^5/mL in DMEM medium supplemented with 10% fetal bovine serum, 1% HEPES buffer, 1% Penicillin/Streptomycin and 1% non-essential amino acids (all Mediatech, Manassas, Va.). At the day of infection, serially diluted compounds were added to cells and incubated for 24 h. After the end of the 24 h pre-incubation period, cells were infected with either Dengue virus type 2 NG-C, Dengue virus type 4 H241, Zika virus strain MR766 or Zika virus strain IbH 30656. The virus inoculum was selected to cause 80-90% cytopathic effect in four (Zika) to five (Dengue) days. Infected cells were incubated for four to five days at 37° C., 5% CO2. To develop the assay, 100 μL media was replaced with 100 μl CellTiter-Glo® reagent (Promega, Madison, Wis.) and incubated for 10 mins at R.T. Luminescence was measured on a Victor ×3 multi-label plate reader. Potential compound cytotoxicity was determined using uninfected parallel cultures.

Human rhinovirus 1B = test: Picornavirus / enterovirus assay, HRV 1B (HeLa-OHIO cells); format: cell-based; details: read-out: HRV 1B EC50
[2] = molecular target: human rhinovirus 16 polymerase (HRV16pol) (Human rhinovirus 16, UniProt Q82122); test: Picornavirus polymerase inhibition assay; format: biochemical; details: triphosphates, read-out: Viral Polymerase Inhibition IC50 Picornavirus
Sequence of human rhinovirus 16 polymerase (HRV16pol) (Q82122 1694-2153 limits assumed): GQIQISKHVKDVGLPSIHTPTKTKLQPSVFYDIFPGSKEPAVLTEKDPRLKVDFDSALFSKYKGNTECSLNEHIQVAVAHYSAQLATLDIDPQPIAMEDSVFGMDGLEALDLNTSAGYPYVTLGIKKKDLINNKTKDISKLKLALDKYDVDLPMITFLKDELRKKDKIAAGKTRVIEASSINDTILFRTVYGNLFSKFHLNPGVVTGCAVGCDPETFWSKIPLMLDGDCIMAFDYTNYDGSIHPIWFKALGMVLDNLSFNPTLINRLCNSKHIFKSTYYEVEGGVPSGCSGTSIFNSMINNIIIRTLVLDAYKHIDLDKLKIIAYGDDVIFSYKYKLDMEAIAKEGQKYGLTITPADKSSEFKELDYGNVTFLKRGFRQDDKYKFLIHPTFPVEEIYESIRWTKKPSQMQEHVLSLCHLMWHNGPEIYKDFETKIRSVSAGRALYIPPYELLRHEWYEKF
Protocol: The enzyme activity of human rhinovirus 16 polymerase (HRV16pol) was measured as an incorporation of tritiated NMP into acid-insoluble RNA products. hV16pol assay reactions contained […] recombinant enzyme, 50 nM heteropolymeric RNA, about 0.5 μCi tritiated NTP, 0.1 mM of competing cold NTP, 40 mM Tris-HCl (pH 7.0), […] dithiothreitol and 0.5 mM MgCl2. Standard reactions were incubated for 2.5 h at 30° C., in the presence of increasing concentration of inhibitor. At the end of the reaction, RNA was precipitated with 10% TCA and acid-insoluble RNA products were filtered on a size exclusion 96-well plate. After washing of the plate, scintillation liquid was added and radiolabeled RNA products were detected using standard procedures with a Trilux Microbeta scintillation counter. The compound concentration at which the enzyme-catalyzed rate was reduced by 50% (IC50) was calculated by fitting the data to a non-linear regression (sigmoidal).

Dengue viral polymerase = Dengue viral polymerase (Dengue virus type 2, UniProt P14340); test: biochemical; details: triphosphates; read-out: Viral Polymerase Inhibition IC50 Dengue
NS5B-BK (Delta-21) = NS5B-BK (Delta-21) (Hepatitis C virus genotype 1b, UniProt P26663); test: biochemical; set-up: species or system HCV
Sequence of NS5B-BK (Delta-21) (P26663 2420-2989 limits assumed): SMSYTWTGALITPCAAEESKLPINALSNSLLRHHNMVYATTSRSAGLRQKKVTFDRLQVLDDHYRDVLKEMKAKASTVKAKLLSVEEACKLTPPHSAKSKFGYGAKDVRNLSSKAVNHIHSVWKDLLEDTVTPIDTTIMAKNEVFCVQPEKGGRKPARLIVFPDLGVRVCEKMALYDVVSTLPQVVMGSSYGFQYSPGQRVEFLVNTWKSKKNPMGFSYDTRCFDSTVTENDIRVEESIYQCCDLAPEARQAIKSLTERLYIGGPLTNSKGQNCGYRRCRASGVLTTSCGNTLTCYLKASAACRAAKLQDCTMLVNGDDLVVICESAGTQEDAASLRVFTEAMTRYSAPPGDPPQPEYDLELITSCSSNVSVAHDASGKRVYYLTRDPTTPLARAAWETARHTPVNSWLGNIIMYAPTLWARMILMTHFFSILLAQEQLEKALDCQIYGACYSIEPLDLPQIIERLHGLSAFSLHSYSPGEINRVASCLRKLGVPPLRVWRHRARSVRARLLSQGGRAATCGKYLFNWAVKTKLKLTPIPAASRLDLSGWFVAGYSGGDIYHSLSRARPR

[3] = Huh7.5, Dengue virus type 2 (NG-C strain)
[4] = Rhinovirus A, HeLa-OHIO cells, 33° C.
[5] = Dengue virus type 2 (NG-C strain)

`C#C[C@]1(O)[C@H](n2cnc3c(N)ncnc32)O[C@](F)(COC(C)=O)[C@H]1OC(C)=O` [Compound 2, ((2S,3S,4R,5R)-3-acetoxy-5-(6-amino-9H-purin-9-yl)-4-ethynyl-2-fluoro-4-hydroxytetrahydrofuran-2-yl)methyl acetate] was tested, and the EC50 [1, 3] was under 3 µM and the EC50 (Human rhinovirus 1B; [4]) was under 3 µM.
With `C#C[C@]1(O)[C@H](n2cnc3c(N)ncnc32)O[C@](F)(COC(=O)C(C)C)[C@H]1OC(=O)C(C)C` [Compound 3, (2S,3S,4R,5R)-5-(6-amino-9H-purin-9-yl)-4-ethynyl-2-fluoro-4-hydroxy-2-((isobutyryloxy)methyl)tetrahydrofuran-3-ylisobutyrate] the EC50 [1, 3] was under 3 µM and the EC50 (Human rhinovirus 1B; [4]) was under 3 µM.
For `C#C[C@@]1(O)[C@H](O)[C@@H](CO)O[C@H]1n1cnc2c(N)nc(F)nc21` [Compound 4, (2R,3R,4R,5R)-2-(6-amino-2-fluoro-9H-purin-9-yl)-3-ethynyl-5-(hydroxymethyl)tetrahydrofuran-3,4-diol], the EC50 [1, 3] was over 100 µM and the EC50 (Human rhinovirus 1B; [4]) was 3 to 30 µM.
`C#C[C@]1(O)[C@H](n2ccc3c(N)ncnc32)O[C@](F)(CO)[C@H]1O` [Compound 6, (2S,3S,4R,5R)-5-(4-amino-7H-pyrrolo[2,3-d]pyrimidin-7-yl)-4-ethynyl-2-fluoro-2-(hydroxymethyl)tetrahydrofuran-3,4-diol] was tested, and the EC50 [1, 3] was 3 to 30 µM and the EC50 (Human rhinovirus 1B; [4]) was under 3 µM.
Work on `C#C[C@]1(O)[C@H](n2cc(C(N)=O)c3c(N)ncnc32)O[C@](F)(CO)[C@H]1O` [Compound 10, 4-amino-7-((2R,3R,4S,5S)-3-ethynyl-5-fluoro-3,4-dihydroxy-5-(hydroxymethyl)tetrahydrofuran-2-yl)-7H-pyrrolo[2,3-d]pyrimidine-5-carboxamide] yielded an EC50 [1, 3] of 3 to 30 µM and an EC50 (Human rhinovirus 1B; Rhinovirus A) of over 100 µM.
With `C[C@@]1(O)[C@H](O)[C@@H](CO)O[C@H]1n1cnc2c(N)nc(F)nc21` [Compound 16] the EC50 [1, 3] was over 100 µM and the EC50 (Human rhinovirus 1B; [4]) was 3 to 30 µM.
For `C#C[C@@]1(O)[C@H](O)[C@@H](COP(=O)(O)OP(=O)(O)OP(=O)(O)O)O[C@H]1n1cnc2c(N)nc(F)nc21` [Compound 17], the IC50 [2] was under 3 µM, the IC50 (Dengue viral polymerase) was 3 to 30 µM and the IC50 (NS5B-BK (Delta-21)) was under 3 µM.
Molecule `C#C[C@@]1(O)[C@H](O)[C@@H](COP(=O)(O)OP(=O)(O)OP(=O)(O)O)O[C@H]1n1cnc2c(N)nc(N)nc21` [Compound 18] has an IC50 [2] of under 3 µM, an IC50 (Dengue viral polymerase) of 3 to 30 µM and an IC50 (NS5B-BK (Delta-21)) of under 3 µM.
`C#C[C@]1(O)[C@H](n2ccc3c(N)ncnc32)O[C@](F)(COP(=O)(O)OP(=O)(O)OP(=O)(O)O)[C@H]1O` [Compound 19] showed an IC50 [2] of under 3 µM, an IC50 (Dengue viral polymerase) of 3 to 30 µM and an IC50 (NS5B-BK (Delta-21)) of under 3 µM.
With `C[C@]1(O)[C@H](n2cnc3c(N)ncnc32)O[C@](F)(COP(=O)(O)OP(=O)(O)OP(=O)(O)O)[C@H]1O` [Compound 20] the IC50 [2] was under 3 µM, the IC50 (Dengue viral polymerase) was 3 to 30 µM and the IC50 (NS5B-BK (Delta-21)) was under 3 µM.
Work on `C[C@]1(F)[C@H](n2cnc3c(N)nc(N)nc32)O[C@](F)(COP(=O)(O)OP(=O)(O)OP(=O)(O)O)[C@H]1O` [Compound 21] yielded an IC50 [2] of under 3 µM, an IC50 (Dengue viral polymerase) of 30 to 100 µM and an IC50 (NS5B-BK (Delta-21)) of under 3 µM.
`C[C@]1(F)[C@H](n2cnc3c(N)ncnc32)O[C@](F)(COP(=O)(O)OP(=O)(O)OP(=O)(O)O)[C@H]1O` [Compound 22] gave an IC50 [2] of under 3 µM, an IC50 (Dengue viral polymerase) of 3 to 30 µM and an IC50 (NS5B-BK (Delta-21)) of under 3 µM.
`C#C[C@]1(O)[C@H](n2cnc3c(N)ncnc32)O[C@](F)(COP(=O)(O)OP(=O)(O)OP(=O)(O)O)[C@H]1O` [Compound 23] gave an IC50 [2] of under 3 µM, an IC50 (Dengue viral polymerase) of under 3 µM and an IC50 (NS5B-BK (Delta-21)) of under 3 µM.
With `C#C[C@@]1(O)[C@H](O)[C@@H](CO)O[C@H]1c1cnc2c(N)ncnn12` [Compound 27, (2S,3R,4R,5R)-2-(4-aminoimidazo[2,1-f][1,2,4]triazin-7-yl)-3-ethynyl-5-(hydroxymethyl)tetrahydrofuran-3,4-diol] the EC50 [1, 3] was under 3 µM and the EC50 (Human rhinovirus 1B; [4]) was under 3 µM.
With `C#C[C@]1(OC(C)=O)[C@H](n2cnc3c(N)ncnc32)O[C@](F)(COC(C)=O)[C@H]1OC(C)=O` [Compound 34, (2S,3S,4R,5R)-2-(acetoxymethyl)-5-(6-amino-9H-purin-9-yl)-4-ethynyl-2-fluorotetrahydrofuran-3,4-diyldiacetate] the EC50 [1, 5] was under 3 µM and the EC50 (Human rhinovirus 1B; HeLa-OHIO cells, 33° C.) was under 3 µM.
`C#C[C@]1(O)[C@H](n2cnc3c(N)ncnc32)O[C@](F)(COC(=O)CC)[C@H]1OC(=O)CC` [Compound 36] was tested, and the EC50 [1, 3] was under 3 µM and the EC50 (Human rhinovirus 1B; [4]) was under 3 µM.
For `C#C[C@]1(O)[C@H](n2cnc3c(N)ncnc32)O[C@](F)(COC(=O)CCC)[C@H]1OC(=O)CCC` [Compound 37, (2S,3S,4R,5R)-5-(6-amino-9H-purin-9-yl)-2-((butyryloxy)methyl)-4-ethynyl-2-fluoro-4-hydroxytetrahydrofuran-3-ylbutyrate], the EC50 [1, 3] was under 3 µM and the EC50 (Human rhinovirus 1B; [4]) was under 3 µM.
`C#C[C@]1(OC(=O)CC)[C@H](n2cnc3c(N)ncnc32)O[C@](F)(COC(=O)CC)[C@H]1OC(=O)CC` [Compound 38, (2S,3S,4R,5R)-5-(6-amino-9H-purin-9-yl)-4-ethynyl-2-fluoro-2-((propionyloxy)methyl)tetrahydrofuran-3,4-diyldipropionate] was tested, and the EC50 [1, 3] was under 3 µM and the EC50 (Human rhinovirus 1B; [4]) was under 3 µM.
`C#C[C@]1(O)[C@H](n2cnc3c(N)ncnc32)O[C@](F)(CO)[C@H]1OC(=O)CCCCCCCCC` [Compound 39, (2S,3S,4R,5R)-5-(6-amino-9H-purin-9-yl)-4-ethynyl-2-fluoro-4-hydroxy-2-(hydroxymethyl)tetrahydrofuran-3-yldecanoate] was tested, and the EC50 [1, 3] was under 3 µM and the EC50 (Human rhinovirus 1B; [4]) was under 3 µM.
`C#C[C@]1(O)[C@H](n2cnc3c(NC(=O)OC(C)(C)C)ncnc32)O[C@](F)(COC(c2ccccc2)(c2ccccc2)c2ccc(OC)cc2)[C@H]1OC(=O)CCCCCCC` [Compound 40] gave an EC50 [1, 5] of under 3 µM and an EC50 (Human rhinovirus 1B; HeLa-OHIO cells, 33° C.) of under 3 µM.
In the case of `C#C[C@]1(O)[C@H](n2cnc3c(N)ncnc32)O[C@](F)(CO)[C@H]1OC(=O)[C@@H](N)C(C)C` [Compound 41, (2S,3S,4R,5R)-5-(6-amino-9H-purin-9-yl)-4-ethynyl-2-fluoro-4-hydroxy-2-(hydroxymethyl)tetrahydrofuran-3-yl L-valinate], the EC50 [1, 3] is reported as under 3 µM and the EC50 (Human rhinovirus 1B; [4]) is reported as under 3 µM.
`C#C[C@]1(O)[C@H](n2cnc3c(NC(=O)OC(C)(C)C)ncnc32)O[C@](F)(COC(c2ccccc2)(c2ccccc2)c2ccc(OC)cc2)[C@H]1OC(=O)CCCCCCCCCCC` [Compound 42, (2S,3S,4R,5R)-5-(6-((tert-butoxycarbonyl)amino)-9H-purin-9-yl)-4-ethynyl-2-fluoro-4-hydroxy-2-(((4-methoxyphenyl)diphenylmethoxy)methyl)tetrahydrofuran-3-yl-dodecanoate] showed an EC50 [1, 3] of under 3 µM and an EC50 (Human rhinovirus 1B; [4]) of under 3 µM.
Molecule `C#C[C@]1(O)[C@H](n2cnc3c(N)ncnc32)O[C@](F)(COC(=O)CCCCCCCCC)[C@H]1O` [Compound 44, ((2S,3S,4R,5R)-5-(6-amino-9H-purin-9-yl)-4-ethynyl-2-fluoro-3,4-dihydroxytetrahydrofuran-2-yl)methyldecanoate] has an EC50 [1, 3] of under 3 µM and an EC50 (Human rhinovirus 1B; [4]) of under 3 µM.
In the case of `C#C[C@]1(O)[C@H](n2cnc3c(N)ncnc32)O[C@](F)(CO)[C@H]1OC(=O)NCCC` [Compound 49, (2S,3S,4R,5R)-5-(6-amino-9H-purin-9-yl)-4-ethynyl-2-fluoro-4-hydroxy-2-(hydroxymethyl)tetrahydrofuran-3-ylpropylcarbamate], the EC50 [1, 5] is reported as 30 to 100 µM and the EC50 (Human rhinovirus 1B; HeLa-OHIO cells, 33° C.) is reported as 3 to 30 µM.
“(2S,3S,4R,5R)-5-(4-amino-5-fluoro-7H-pyrrolo[2,3-d]pyrimidin-7-yl)-4-ethynyl-2-fluoro-2-(hydroxymethyl)tetrahydrofuran-3,4-diol [Compound 31]” gave an EC50 [1, 5] of under 3 µM and an EC50 (Human rhinovirus 1B; HeLa-OHIO cells, 33° C.) of under 3 µM.
